Laboratory results published in article PMC8396344, “Palmitoylation of Prolactin-Releasing Peptide Increased Affinity for and Activation of the GPR10, NPFF-R2 and NPFF-R1 Receptors: In Vitro Study” (International Journal of Molecular Sciences, 2021).
No end group written: not given here.

Tests used:
[1] = biological target: T1, NPFF-R1 (Homo sapiens, UniProt Q9GZQ6); assay: Competitive and saturation binding, [^125I]-1DMe, membranes of CHO-K1 cells with NPFF-R1
T1 construct: host or cells: CHO-K1 (isolated membranes)
Procedure: (§1) Experiments were carried out in duplicate at least three times, and Ki was calculated using the Cheng-Prusoff equation.
(§2) Data were analyzed by GraphPad Software (San Diego, CA, USA) and are presented as the means ± SEM. The saturation and competitive binding experiments were analyzed according to [46] using the Cheng-Prusoff equation [33]. The competitive binding curves were plotted compared to the best fit for single-binding site models, and half maximal inhibitory concentration (IC50) values were obtained from nonlinear regression analysis. From saturation binding experiments, the dissociation constant (Kd) and number of binding sites/cell (Bmax) were calculated. Inhibition constants (Ki) were calculated from IC50 values, Kd and the concentration of radioligands.

[2] = biological target: T2, GPR10 (Homo sapiens, UniProt P49683); assay: Beta-lactamase reporter gene assay (FRET), GPR10; type: cell-based; details: β-lactamase assay, agonist mode, CHO-K1 cells; mean ± SEM, 2–3 independent experiments in duplicates
T2 construct: host or cells: CHO-K1
T2 sequence (P49683 1-370): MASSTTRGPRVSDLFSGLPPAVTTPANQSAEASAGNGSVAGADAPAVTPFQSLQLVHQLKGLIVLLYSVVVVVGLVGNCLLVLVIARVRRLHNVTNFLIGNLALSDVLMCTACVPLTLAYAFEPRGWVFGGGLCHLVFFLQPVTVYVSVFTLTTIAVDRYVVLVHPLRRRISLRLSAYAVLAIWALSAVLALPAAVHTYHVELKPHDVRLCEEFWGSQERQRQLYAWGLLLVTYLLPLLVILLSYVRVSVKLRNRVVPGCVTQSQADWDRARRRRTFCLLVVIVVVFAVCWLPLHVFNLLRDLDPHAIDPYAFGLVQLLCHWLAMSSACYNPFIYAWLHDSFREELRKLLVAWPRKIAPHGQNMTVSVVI

[3] = biological target: T3, NPFF-R2 (Homo sapiens, UniProt Q9Y5X5); assay: Intracellular Ca^2+ mobilization, AequoScreen CHO-K1 cells with NPFF-R2; type: cell-based; details: CHO-K1 NPFF-R2 aequorin cells; peptides 10^−12 to 10^−5 M; mean ± SEM, three times in duplicates; read-out: EC50 intracellular Ca^2+ release, NPFF-R2
T3 construct: host or cells: CHO-K1 (AequoScreen, co-expressing aequorin)
Procedure: The intracellular Ca^2+ level was measured using the AequoScreen stable CHO-K1 cell line containing NPFF-R2 purchased from Perkin Elmer according to the manufacturer’s protocol. Cells at 80–90% confluence cultured in media without selective antibiotics were detached (PBS pH 7.4 + 0.5 mM EDTA) and centrifuged. Cells resuspended in phenol red-free DMEM with 0.1% protease-free BSA and 5 µM coelenterazine h (Thermo Fisher Scientific Inc. Brand) were seeded at 50,000 cells/well in 96-well plates and incubated in the dark at RT with gentle agitation for 4 h. Peptides were tested at concentrations from 10^−12 to 10^−5 M. Luminescent light emission was recorded using a FlexStation 3 plate reader.
(§3) Ca^2+ release assay data are shown as the percentage of maximal response, and the results were analyzed by nonlinear regression as log agonist versus response using GraphPad software. Data are representative of at least three experiments, each performed in duplicate.

[4] = biological target: T4, GHSR (Homo sapiens, UniProt Q92847); assay: Competitive and saturation binding, [^125I]-ghrelin, U2OS cells with GHSR
T4 construct: host or cells: U2OS
Procedure: Competition binding experiments were performed according to [45]. […] Binding experiments using U2OS cells were optimized and performed in assay buffer (50 mM Tris-Cl pH 7.4, 118 mM NaCl, 5 mM MgCl2, 4.7 mM KCl, 0.1% BSA) for cells stably expressing GHSR and (25 mM HEPES, 120 mM NaCl, 5 mM MgCl2, 4.7 mM KCl, 1 mM CaCl2, 0.5% BSA, 2 g/L glucose) for cells containing receptors Y1, Y2 and Y5. […] Cells were incubated for 60 min at room temperature (RT).
as §1, §2

[5] = biological target: T4, GHSR; assay: Beta-lactamase reporter gene assay (FRET), GHSR; type: cell-based
[6] = biological target: T2, GPR10; assay: Competitive binding, [^125I]-PrRP31, CHO-K1 cells expressing GPR10
[7] = biological target: T2, GPR10; assay: Intracellular Ca^2+ mobilization, Fura-2, CHO-K1 cells expressing GPR10; type: cell-based; details: Fura 2 dye; peptides 10^−12 to 10^−5 M; repeated two times in duplicates
Procedure: Measuring the intracellular Ca^2+ level in CHO-K1 cells containing GRP10 was performed using the calcium-sensitive dye Fura-2 according to the manufacturer’s protocol (Molecular Devices, Sunnyvale, CA, USA). The day before the experiment, cells were seeded at 40,000 cells/well in 96-well plates in growth media and kept at 37 °C in an incubator with 5% CO2 overnight. Peptides were tested at concentrations from 10^−12 to 10^−5 M. Fura-2 fluorescent dye was detected using a FlexStation 3 fluorometric plate reader (Molecular Devices), and excitation was measured at 340 nm and 380 nm and emission at 510 nm.
as §3

T4 sequence (Q92847 whole entry): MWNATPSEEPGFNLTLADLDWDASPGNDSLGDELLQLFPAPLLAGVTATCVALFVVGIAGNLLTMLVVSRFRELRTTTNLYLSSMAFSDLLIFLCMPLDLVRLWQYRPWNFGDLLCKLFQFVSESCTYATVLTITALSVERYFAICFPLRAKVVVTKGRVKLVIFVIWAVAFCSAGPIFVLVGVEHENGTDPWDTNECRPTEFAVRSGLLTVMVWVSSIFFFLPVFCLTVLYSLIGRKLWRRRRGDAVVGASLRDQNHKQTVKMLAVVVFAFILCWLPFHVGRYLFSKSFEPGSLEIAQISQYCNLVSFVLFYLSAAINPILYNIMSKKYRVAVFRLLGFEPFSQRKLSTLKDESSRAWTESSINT
T1 sequence (Q9GZQ6 whole entry): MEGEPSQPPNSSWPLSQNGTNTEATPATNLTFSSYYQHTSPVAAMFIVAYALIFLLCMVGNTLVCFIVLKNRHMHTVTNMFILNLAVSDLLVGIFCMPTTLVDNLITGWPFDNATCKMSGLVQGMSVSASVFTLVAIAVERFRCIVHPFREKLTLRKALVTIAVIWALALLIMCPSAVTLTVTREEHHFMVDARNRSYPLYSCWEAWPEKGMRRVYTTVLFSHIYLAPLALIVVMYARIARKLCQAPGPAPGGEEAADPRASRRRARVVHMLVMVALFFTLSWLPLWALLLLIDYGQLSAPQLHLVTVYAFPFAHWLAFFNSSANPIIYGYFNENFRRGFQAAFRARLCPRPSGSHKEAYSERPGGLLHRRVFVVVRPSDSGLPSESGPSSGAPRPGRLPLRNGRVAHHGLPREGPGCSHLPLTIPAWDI
T3 sequence (Q9Y5X5 whole entry): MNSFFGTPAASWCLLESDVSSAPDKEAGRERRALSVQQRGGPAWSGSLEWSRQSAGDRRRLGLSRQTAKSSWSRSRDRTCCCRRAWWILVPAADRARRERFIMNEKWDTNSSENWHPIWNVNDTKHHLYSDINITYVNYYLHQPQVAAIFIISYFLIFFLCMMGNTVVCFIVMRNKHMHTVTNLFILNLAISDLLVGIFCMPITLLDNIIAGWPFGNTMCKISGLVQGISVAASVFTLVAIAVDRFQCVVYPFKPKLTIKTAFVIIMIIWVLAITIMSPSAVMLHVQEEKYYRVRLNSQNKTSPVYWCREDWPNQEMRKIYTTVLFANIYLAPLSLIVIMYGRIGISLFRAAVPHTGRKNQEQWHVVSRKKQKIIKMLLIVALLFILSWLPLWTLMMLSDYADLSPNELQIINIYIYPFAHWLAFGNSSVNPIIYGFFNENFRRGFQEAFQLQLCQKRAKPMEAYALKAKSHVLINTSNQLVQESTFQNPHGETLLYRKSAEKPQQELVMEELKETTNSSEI

Compound	Ki [1] [nM]	EC50 [2] [nM]	EC50 [3] [nM]	Ki [4] [nM]	EC50 [5] [µM]	Ki [6] [nM]	Ca^2+ mobilization in CHO-K1 cells expressing GPR10 [7]
SRAHQHSMETRTPDINPAWYTGRGIRPVGRF-NH2 [PrRP31, prolactin-releasing peptide 31, reference compound]	40.4 ± 4.2	0.53 ± 0.0705	89.33 ± 0.84	> 10000	> 10	4.58 ± 0.66	–
CCCCCCCCCCCCCCCC(=O)N[C@@H](CO)C(=O)N[C@@H](CCCNC(=N)N)C(=O)N[C@H](C(=O)N[C@@H](Cc1c[nH]cn1)C(=O)N[C@@H](CCCNC(=N)N)C(=O)N[C@@H](Cc1c[nH]cn1)C(=O)N[C@@H](CO)C(=O)N[C@@H](CCSC)C(=O)N[C@@H](CCC(=O)O)C(=O)N[C@H](C(=O)N[C@@H](CCCNC(=N)N)C(=O)N[C@H](C(=O)N1CCC[C@H]1C(=O)N[C@@H](CC(=O)O)C(=O)N[C@H](C(=O)N[C@@H](CC(N)=O)C(=O)N1CCC[C@H]1C(=O)N[C@@H](C)C(=O)N[C@@H](Cc1c[nH]c2ccccc12)C(=O)N[C@@H](Cc1ccc(O)cc1)C(=O)N[C@@H](C)C(=O)N[C@@H](CO)C(=O)N[C@@H](CCCNC(=N)N)C(=O)NCC(=O)N[C@H](C(=O)N[C@@H](CCCNC(=N)N)C(=O)N1CCC[C@H]1C(=O)N[C@H](C(=O)NCC(=O)N[C@@H](CCCNC(=N)N)C(=O)N[C@@H](Cc1ccccc1)C(N)=O)C(C)C)[C@@H](C)CC)[C@@H](C)CC)[C@@H](C)O)[C@@H](C)CC)[C@@H](C)O [Palm-PrRP31]	0.78 ± 0.11	–	14.2 ± 1.52	160 ± 16	–	–	stimulated Ca^2+ mobilization
